Earlier results, collected in PMC11938273 (Journal of Chemical Information and Modeling, 2025).

Details: in vivo; cited from earlier work

Structure (SMILES) | CNS status
COC(=O)[C@H]1[C@@H](c2ccc(C)cc2)C[C@@H]2CC[C@H]1N2C/C=C/I [PE2i, (1R,2S,3S,5S)-methyl 8-((E)-3-iodoallyl)-3-(p-tolyl)-8-azabicyclo[3.2.1]octane-2-carboxylate] | Positive
COC(=O)[C@H]1[C@@H](c2ccc(I)cc2)C[C@@H]2CC[C@H]1N2CCCF (racemic) [beta-CIT-FP, rac-methyl(1R,2S,3S,5S)-8-(3-fluoropropyl)-3-(4-iodophenyl)-8-azabicyclo[3.2.1]octane-2-carboxylate] | Positive
C[C@]12CC[C@@H]3c4ccc(O)cc4C[C@@H](CCCCCCCCC[S+]([O-])CCCC(F)(F)C(F)(F)F)[C@H]3[C@@H]1CC[C@@H]2O (stereo partly drawn) [Fulvestrant, (7α,17β)-7-{9-[(4,4,5,5,5-Pentafluoropentyl)sulfinyl]nonyl}estra-1(10),2,4-triene-3,17-diol] | Negative
COC(=O)[C@H]1[C@@H](c2ccc(I)cc2)C[C@@H]2CC[C@H]1N2C [beta-CIT, (1R,2S,3S,5S)-methyl-3-(4-iodophenyl)-8-methyl-8-azabicyclo [3.2.1]octane-2-carboxylate] | Positive
COC(=O)N1CCN(C(=O)Cc2ccc(Cl)c(Cl)c2)[C@H](CN2CCCC2)C1 [GR89696, (R)-methyl 4-(2-(3,4-dichlorophenyl)acetyl)-3-(pyrrolidin-1-ylmethyl)piperazine-1-carboxylate] | Positive
C(=N\NC1=NCCN1)/c1c2ccccc2c(/C=N/NC2=NCCN2)c2ccccc12 [Bisantrene, N-[(E)-[10-[(E)-(4,5-dihydro-1H-imidazol-2-ylhydrazinylidene)methyl]anthracen-9-yl]methylideneamino]-4,5-dihydro-1H-imidazol-2-amine] | Efflux transporter substrate
COCC1=C(C(=O)OC)[C@H](c2ccc(F)c(F)c2)N(C(=O)NCCCN2CCC(c3cccc(NC(C)=O)c3)CC2)C(=O)N1 [SNAP7941, methyl 3-((3-(4-(3-acetamidophenyl)piperidin-1-yl)propyl)carbamoyl)-4-(3,4-difluorophenyl)-6-(methoxymethyl)-2-oxo-1,2,3,4-tetrahydropyrimidine-5-carboxylate] | Efflux transporter substrate
Cc1ccc(-c2cc(C(F)(F)F)nn2-c2ccc(S(N)(=O)=O)cc2)cc1 [Celecoxib, 4-[5-(4-Methylphenyl)-3-(trifluoromethyl)-1H-pyrazol-1-yl]benzenesulfonamide] | Negative
N[C@@H](CC(=O)N1CCn2c(nnc2C(F)(F)F)C1)Cc1cc(F)c(F)cc1F [Sitagliptin, (3R)-3-Amino-1-[3-(trifluoromethyl)-5,6-dihydro[1,2,4]triazolo[4,3-a]pyrazin-7(8H)-yl]-4-(2,4,5-trifluorophenyl)-1-butanone] | Negative
COc1cc([C@@H]2c3cc4c(cc3[C@@H](O[C@@H]3O[C@@H]5CO[C@@H](C)O[C@H]5[C@H](O)[C@H]3O)[C@H]3COC(=O)[C@H]23)OCO4)cc(OC)c1O [Etoposide, (5S,5aR,8aR,9R)-9-(4-Hydroxy-3,5-dimethoxyphenyl)-8-oxo-5,5a,6,8,8a,9-hexahydrofuro[3′,4′:6,7]naphtho[2,3-d][1,3]dioxol-5-yl 4,6-O-[(1R)-ethylidene]-β-D-glucopyranoside] | Efflux transporter substrate
C[C@H](N)[C@H](O)c1cccc(O)c1 (racemic) [Metaraminol, rac-3-((1R,2S)-2-amino-1-hydroxypropyl)phenol] | Negative
COC(=O)[C@H]1[C@@H](c2ccc(I)cc2)C[C@@H]2CC[C@H]1N2CCF [CIT-FE, (1R,2S,3S,5S)-methyl 8-(2-fluoroethyl)-3-(4-iodophenyl)-8-azabicyclo[3.2.1]octane-2-carboxylate] | Positive
COC(=O)C1=C(C)NC(C)=C(C(=O)OCCN(C)Cc2ccccc2)C1c1cccc([N+](=O)[O-])c1 (centres unmarked) [Nicardipine, 2-[Benzyl(methyl)amino]ethyl methyl 2,6-dimethyl-4-(3-nitrophenyl)-1,4-dihydro-3,5-pyridinedicarboxylate] | Efflux transporter substrate
CCSC(=O)c1c(CC)nc(-c2ccccc2)c(C(=O)OCC[18F])c1CC [FE@SUPPY, 5-(2-[18F]fluoroethyl)2,4-diethyl-3-(ethylsulfanylcarbonyl)-6-phenylpyridine-5-carboxylate] | Negative
COc1ccc(OC)c(CN(C(C)=O)c2cc(F)ccc2Oc2ccccc2)c1 [DAA1106, N-(2,5-dimethoxybenzyl)-N-(5-fluoro-2-phenoxyphenyl)acetamide] | Positive
C#Cc1cccc(Nc2ncnc3cc(OCCOC)c(OCCOC)cc23)c1 [Erlotinib, N-(3-Ethynylphenyl)-6,7-bis(2-methoxyethoxy)-4-quinazolinamine] | Efflux transporter substrate
CCC(C)n1ncn(-c2ccc(N3CCN(c4ccc(OC[C@H]5CO[C@](Cn6cncn6)(c6ccc(Cl)cc6Cl)O5)cc4)CC3)cc2)c1=O (stereo partly drawn) [Itraconazole, 2-sec-Butyl-4-{4-[4-(4-{[(2R,4S)-2-(2,4-dichlorophenyl)-2-(1H-1,2,4-triazol-1-ylmethyl)-1,3-dioxolan-4-yl]methoxy}phenyl)-1-piperazinyl]phenyl}-2,4-dihydro-3H-1,2,4-triazol-3-one] | Negative
CC(C)c1nc(CN(C)C(=O)N[C@H](C(=O)N[C@@H](Cc2ccccc2)C[C@H](O)[C@H](Cc2ccccc2)NC(=O)OCc2cncs2)C(C)C)cs1 [Ritonavir, (1E,2S)-N-[(2S,4S,5S)-4-Hydroxy-5-{(E)-[hydroxy(1,3-thiazol-5-ylmethoxy)methylene]amino}-1,6-diphenyl-2-hexanyl]-2-[(E)-(hydroxy{[(2-isopropyl-1,3-thiazol-4-yl)methyl](methyl)amino}methylene)amino]-3-methylbutanimidic acid] | Efflux transporter substrate
COc1cc([C@@H]2c3cc4c(cc3[C@@H](O[C@@H]3O[C@@H]5CO[C@@H](c6cccs6)O[C@H]5[C@H](O)[C@H]3O)[C@H]3COC(=O)[C@H]23)OCO4)cc(OC)c1O [Teniposide, (5S,5aR,8aR,9R)-9-(4-Hydroxy-3,5-dimethoxyphenyl)-8-oxo-5,5a,6,8,8a,9-hexahydrofuro[3′,4′:6,7]naphtho[2,3-d][1,3]dioxol-5-yl 4,6-O-(2-thienylmethylene)-β-D-glucopyranoside] | Efflux transporter substrate
CS(=O)(=O)c1ccc(C2=C(c3ccccc3)C(=O)OC2)cc1 [Rofecoxib, 4-[4-(Methylsulfonyl)phenyl]-3-phenyl2(5H)-furanone] | Negative
CCCC(=O)OC1CCN(C)CC1 [BMP, 1-methylpiperidin-4-yl butyrate] | Positive
CC#CCn1c(N2CCC[C@@H](N)C2)nc2c1c(=O)n(Cc1nc(C)c3ccccc3n1)c(=O)n2C [Linagliptin, 8-(3-Amino-1-piperidinyl)-7-(2-butyn-1-yl)-3-methyl-1-[(4-methyl-2-quinazolinyl)methyl]-3,7-dihydro-1H-purine-2,6-dione] | Negative
COc1cccc2c1C(=O)c1c(O)c3c(c(O)c1C2=O)C[C@@](O)(C(=O)CO)C[C@@H]3O[C@H]1C[C@H](N)[C@@H](O)[C@H](C)O1 [Epirubicin, (1S,3S)-3-Glycoloyl-3,5,12-trihydroxy-10-methoxy-6,11-dioxo-1,2,3,4,6,11-hexahydro-1-tetracenyl 3-amino-2,3,6-trideoxy-α-L-arabino-hexopyranoside] | Efflux transporter substrate
